These results are taken from ChEMBL document CHEMBL1201862, “PubChem BioAssay data set” (2004).

Active and inactive are the calls of the source.

Assay [1] addresses T1, Low molecular weight phosphotyrosine protein phosphatase (Homo sapiens, UniProt P24666).
T1 sequence (P24666 whole entry): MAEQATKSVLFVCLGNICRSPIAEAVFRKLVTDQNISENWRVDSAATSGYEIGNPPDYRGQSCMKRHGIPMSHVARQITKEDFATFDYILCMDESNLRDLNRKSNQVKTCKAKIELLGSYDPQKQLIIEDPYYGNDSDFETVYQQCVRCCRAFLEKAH
It is filed as functional. The following applies: read-out: IC50_Mean.

A short description of assay [2]: HepG2 cell cytotoxicity, dose response, cytotoxicity control for Shn3 inhibitor project, CellTiter-Glo, cherry-picked (AID 624134). It is filed as functional, cell-based. Background: ATP-based viability assays read luminescence as a measure of living cells.
For another assay, the system named is CHO. Kind of assay: cytotoxicity in TLR9-MyD88 CHO cells, dose response, cytotoxicity control for TLR9-MyD88 binding inhibitor project, cell-based, luminescence (AID 588339).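 Note: CHO cells stably coexpressing TLR9 and MyD88 fusions from primary screen; compound exposure lasted 48 hours before viability readout.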 To be noted: Cricetulus griseus. It is filed as functional, hamster.
For another assay, the target named is Beta Lactamase (Pseudomonas aeruginosa, UniProt Q932Y6). In words: beta-lactamase reporter inhibitor potency, dose response, artefact control for TLR9-MyD88 binding inhibitor project, BLA reporter cells, FRET fluorescence (AID 588341).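 Note: cell based assay in CHO-K1 cells stably expressing beta-lactamase.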 It is filed as cell-based.
Chain of Beta Lactamase (Q932Y6 whole entry): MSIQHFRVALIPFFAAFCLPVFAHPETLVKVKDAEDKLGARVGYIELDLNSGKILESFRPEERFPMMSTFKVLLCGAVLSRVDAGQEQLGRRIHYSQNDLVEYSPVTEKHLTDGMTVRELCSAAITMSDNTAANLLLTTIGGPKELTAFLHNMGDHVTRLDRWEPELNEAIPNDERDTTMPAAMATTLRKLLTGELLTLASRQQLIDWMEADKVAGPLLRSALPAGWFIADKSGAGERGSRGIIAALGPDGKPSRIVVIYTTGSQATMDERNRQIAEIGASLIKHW
In assay [3] the target is T2, High affinity choline transporter 1 (Homo sapiens, UniProt Q9GZV3).
T2 sequence (Q9GZV3 whole entry): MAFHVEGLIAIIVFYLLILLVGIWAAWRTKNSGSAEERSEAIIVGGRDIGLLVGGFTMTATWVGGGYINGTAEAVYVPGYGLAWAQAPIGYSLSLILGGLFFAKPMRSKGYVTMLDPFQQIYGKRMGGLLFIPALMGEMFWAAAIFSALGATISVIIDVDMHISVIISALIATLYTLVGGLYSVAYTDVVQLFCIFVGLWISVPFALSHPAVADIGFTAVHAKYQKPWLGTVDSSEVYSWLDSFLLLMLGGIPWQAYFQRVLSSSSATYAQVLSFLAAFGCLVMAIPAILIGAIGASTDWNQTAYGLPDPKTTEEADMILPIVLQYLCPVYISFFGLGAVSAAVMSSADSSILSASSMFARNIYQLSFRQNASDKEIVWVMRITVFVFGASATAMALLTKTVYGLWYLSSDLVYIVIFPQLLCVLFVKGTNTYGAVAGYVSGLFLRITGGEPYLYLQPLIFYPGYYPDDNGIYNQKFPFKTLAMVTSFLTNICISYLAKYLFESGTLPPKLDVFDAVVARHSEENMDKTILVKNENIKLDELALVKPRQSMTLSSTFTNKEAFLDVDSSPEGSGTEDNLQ
In words: CHT inhibitors, dose response, cell-based, 10-point CRC, membrane potential dye (AID 588401).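 Note: membrane potential dye fluorescence of choline-evoked depolarization via CHT.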 It is filed as functional.

Assay [4] in a line: control 3'UTR Renilla luciferase suppression, dose response, counter-screen for Shn3 inhibitor project, cell-based, Clone20-Shn3RL, cherry-picked (AID 624133). It is filed as functional. In general terms: Counterscreens check selectivity or assay interference.
For assay [5], the target named is T2, High affinity choline transporter 1. Kind of assay: CHT inhibitors, dose response, cell-based, 5-point CRC, membrane potential dye (AID 504840). It is filed as functional.
The nature of assay [6]: Shn3 3'UTR reporter inhibitors, dose response, cell-based, Clone20 osteoblasts, firefly luciferase, cherry-picked (AID 624132).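 Note: firefly luciferase luminescence from reporter carrying the Shn3 3'UTR in osteoblasts.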 It is filed as functional.
The target in the next assay is Steroidogenic factor 1 (Homo sapiens, UniProt Q13285). Kind of assay: Counterscreen for inverse agonists of the liver receptor homolog-1 (LRH-1; NR5A2): Luminescence-based cell-based high throughput dose response assay to identify inverse agonists of the Steroidogenic Factor 1 Nuclear Receptor (SF1; NR5A1). It is filed as functional.
Chain of Steroidogenic factor 1 (Q13285 whole entry): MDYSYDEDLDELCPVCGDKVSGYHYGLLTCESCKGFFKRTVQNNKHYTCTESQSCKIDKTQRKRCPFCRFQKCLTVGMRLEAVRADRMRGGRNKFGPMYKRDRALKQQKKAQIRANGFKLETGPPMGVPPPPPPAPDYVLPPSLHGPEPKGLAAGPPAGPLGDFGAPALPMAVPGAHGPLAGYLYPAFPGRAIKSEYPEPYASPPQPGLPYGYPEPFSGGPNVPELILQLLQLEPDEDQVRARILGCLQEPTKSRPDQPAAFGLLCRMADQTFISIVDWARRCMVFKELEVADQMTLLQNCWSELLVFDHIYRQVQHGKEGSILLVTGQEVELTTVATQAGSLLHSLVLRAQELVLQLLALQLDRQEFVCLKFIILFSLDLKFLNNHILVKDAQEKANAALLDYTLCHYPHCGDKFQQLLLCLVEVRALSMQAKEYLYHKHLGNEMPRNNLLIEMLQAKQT
A short description of assay [7]: StAR promoter reporter inhibition counter-screen, dose response, counter-screen for LRH-1 inverse agonist project, cell-based, luminescence, luciferase reporter (AID 651969). It is filed as functional.
Assay [8] deals with Nuclear receptor subfamily 5 group A member 2 (Homo sapiens, UniProt O00482). It is filed as functional, cell-based.
Chain of Nuclear receptor subfamily 5 group A member 2 (O00482 whole entry): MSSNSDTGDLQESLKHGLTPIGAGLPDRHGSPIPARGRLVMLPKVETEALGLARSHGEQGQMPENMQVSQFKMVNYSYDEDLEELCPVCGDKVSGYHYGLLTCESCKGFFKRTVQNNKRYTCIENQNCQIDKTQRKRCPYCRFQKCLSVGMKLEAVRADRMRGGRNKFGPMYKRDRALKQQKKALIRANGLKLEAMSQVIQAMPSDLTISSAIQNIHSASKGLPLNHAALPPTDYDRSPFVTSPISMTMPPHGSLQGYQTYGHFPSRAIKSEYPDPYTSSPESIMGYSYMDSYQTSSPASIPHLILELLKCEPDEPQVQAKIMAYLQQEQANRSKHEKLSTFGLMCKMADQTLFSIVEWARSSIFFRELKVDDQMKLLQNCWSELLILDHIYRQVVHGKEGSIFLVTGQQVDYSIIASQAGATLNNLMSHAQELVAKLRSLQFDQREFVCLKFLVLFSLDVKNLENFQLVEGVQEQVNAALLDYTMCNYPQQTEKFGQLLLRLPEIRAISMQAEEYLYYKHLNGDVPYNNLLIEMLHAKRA
A short description of assay [9]: DNA binding of candidate compounds, dose response, artefact control for RAD54 inhibitor project, biochemical, fluorescence polarization, cherry-pick (AID 651673). It is filed as functional. A general note: Polarisation of emitted light reports the rotation of a fluorescent probe.
The target of assay [10] is DNA (cytosine-5)-methyltransferase 1 (Homo sapiens, UniProt P26358). Kind of assay: DNMT1 methyltransferase inhibitors, confirmation, biochemical, fluorescent molecular beacon (AID 602386). It is filed as functional.
Assay [11] in a line: Counterscreen for activators of the function of SWI/SNF related, matrix associated, actin dependent regulator of chromatin, subfamily a, member 2 (SMARCA2, BRM): Luminescence-based cell-based high throughput dose response assay to identify non-selective compounds using the VP16 reporter assay. It is filed as functional.
The target in assay [12] is SWI/SNF-related matrix-associated actin-dependent regulator of chromatin subfamily A member 2 (Homo sapiens, UniProt P51531). Kind of assay: Luminescence-based cell-based high throughput dose response assay to identify activators of the function of SWI/SNF related, matrix associated, actin dependent regulator of chromatin, subfamily a, member 2 (SMARCA2, BRM). It is filed as functional.
Chain of SWI/SNF-related matrix-associated actin-dependent regulator of chromatin subfamily A member 2 (P51531 whole entry): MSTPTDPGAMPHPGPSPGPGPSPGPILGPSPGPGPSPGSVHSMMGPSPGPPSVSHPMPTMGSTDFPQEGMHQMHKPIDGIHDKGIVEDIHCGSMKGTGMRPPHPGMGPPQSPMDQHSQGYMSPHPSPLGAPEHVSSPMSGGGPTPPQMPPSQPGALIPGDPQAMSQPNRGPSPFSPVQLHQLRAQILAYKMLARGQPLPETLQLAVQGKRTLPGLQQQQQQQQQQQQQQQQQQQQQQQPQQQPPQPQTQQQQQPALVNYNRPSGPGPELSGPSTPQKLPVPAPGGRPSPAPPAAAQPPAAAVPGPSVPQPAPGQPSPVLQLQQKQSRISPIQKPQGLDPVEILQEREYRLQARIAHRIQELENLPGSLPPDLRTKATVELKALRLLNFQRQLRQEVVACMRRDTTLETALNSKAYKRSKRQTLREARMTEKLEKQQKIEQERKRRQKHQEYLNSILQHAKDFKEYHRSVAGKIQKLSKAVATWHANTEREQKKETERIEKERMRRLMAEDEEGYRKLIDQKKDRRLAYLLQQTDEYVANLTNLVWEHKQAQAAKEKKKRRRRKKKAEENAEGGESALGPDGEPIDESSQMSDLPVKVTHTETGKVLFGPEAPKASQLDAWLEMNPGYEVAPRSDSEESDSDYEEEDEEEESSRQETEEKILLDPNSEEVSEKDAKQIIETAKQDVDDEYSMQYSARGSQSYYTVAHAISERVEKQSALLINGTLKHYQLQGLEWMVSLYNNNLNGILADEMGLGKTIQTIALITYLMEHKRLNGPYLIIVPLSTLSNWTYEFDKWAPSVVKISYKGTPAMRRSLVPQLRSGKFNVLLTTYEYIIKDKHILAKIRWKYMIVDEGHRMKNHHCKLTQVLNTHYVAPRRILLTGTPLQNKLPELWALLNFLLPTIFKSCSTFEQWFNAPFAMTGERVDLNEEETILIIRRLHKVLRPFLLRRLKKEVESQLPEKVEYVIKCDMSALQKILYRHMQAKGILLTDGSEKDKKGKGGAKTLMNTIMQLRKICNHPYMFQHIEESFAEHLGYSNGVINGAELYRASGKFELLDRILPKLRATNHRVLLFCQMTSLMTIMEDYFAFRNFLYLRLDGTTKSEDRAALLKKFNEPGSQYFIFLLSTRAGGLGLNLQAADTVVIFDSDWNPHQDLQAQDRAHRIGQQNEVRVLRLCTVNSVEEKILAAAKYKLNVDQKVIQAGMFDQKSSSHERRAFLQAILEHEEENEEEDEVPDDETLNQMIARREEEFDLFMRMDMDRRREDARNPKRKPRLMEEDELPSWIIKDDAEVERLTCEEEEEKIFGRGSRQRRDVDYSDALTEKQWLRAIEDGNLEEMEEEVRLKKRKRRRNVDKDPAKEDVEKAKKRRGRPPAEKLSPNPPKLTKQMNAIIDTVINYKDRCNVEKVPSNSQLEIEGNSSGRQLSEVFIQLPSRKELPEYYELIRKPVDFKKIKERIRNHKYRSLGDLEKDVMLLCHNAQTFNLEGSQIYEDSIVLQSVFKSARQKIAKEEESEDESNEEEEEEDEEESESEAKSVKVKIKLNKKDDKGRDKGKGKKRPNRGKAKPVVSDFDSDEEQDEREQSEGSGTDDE

The nature of assay [13]: MDA-MB-231 cell growth inhibition, dose response, cytotoxicity control for RAD54 inhibitor project, CellTiter-Glo luminescence, cherry-pick (AID 651692). It is filed as functional, cell-based.
In assay [14] the target is T3, DNA repair and recombination protein RAD54-like (Homo sapiens, UniProt Q92698).
T3 sequence (Q92698 whole entry): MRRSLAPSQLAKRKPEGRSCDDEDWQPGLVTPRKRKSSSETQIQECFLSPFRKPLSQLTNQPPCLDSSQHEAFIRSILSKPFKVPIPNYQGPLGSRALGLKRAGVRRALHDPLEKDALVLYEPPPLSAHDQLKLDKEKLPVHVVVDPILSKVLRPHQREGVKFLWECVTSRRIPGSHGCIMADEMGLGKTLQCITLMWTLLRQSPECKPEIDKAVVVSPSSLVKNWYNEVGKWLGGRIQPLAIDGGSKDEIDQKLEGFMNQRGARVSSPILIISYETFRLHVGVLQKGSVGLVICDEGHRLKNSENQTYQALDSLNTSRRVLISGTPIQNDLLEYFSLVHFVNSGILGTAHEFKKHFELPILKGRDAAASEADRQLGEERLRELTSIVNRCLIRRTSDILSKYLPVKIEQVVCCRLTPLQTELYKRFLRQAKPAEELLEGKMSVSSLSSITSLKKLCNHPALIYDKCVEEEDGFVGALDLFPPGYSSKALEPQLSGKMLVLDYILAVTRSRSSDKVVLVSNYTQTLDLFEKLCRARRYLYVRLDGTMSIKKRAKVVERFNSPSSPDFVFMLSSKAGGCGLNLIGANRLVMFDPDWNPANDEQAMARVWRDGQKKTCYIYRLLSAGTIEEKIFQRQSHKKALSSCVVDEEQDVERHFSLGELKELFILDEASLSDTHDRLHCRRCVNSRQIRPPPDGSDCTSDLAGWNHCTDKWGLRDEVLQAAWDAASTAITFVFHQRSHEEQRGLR
Kind of assay: inhibitors of human RAD54 branch migration, confirmation, biochemical, fluorescence, cherry-picked samples, dose series (AID 651657). It is filed as functional.

Assay [15] addresses T4, DNA repair protein RAD52 homolog (Homo sapiens, UniProt P43351).
T4 sequence (P43351 whole entry): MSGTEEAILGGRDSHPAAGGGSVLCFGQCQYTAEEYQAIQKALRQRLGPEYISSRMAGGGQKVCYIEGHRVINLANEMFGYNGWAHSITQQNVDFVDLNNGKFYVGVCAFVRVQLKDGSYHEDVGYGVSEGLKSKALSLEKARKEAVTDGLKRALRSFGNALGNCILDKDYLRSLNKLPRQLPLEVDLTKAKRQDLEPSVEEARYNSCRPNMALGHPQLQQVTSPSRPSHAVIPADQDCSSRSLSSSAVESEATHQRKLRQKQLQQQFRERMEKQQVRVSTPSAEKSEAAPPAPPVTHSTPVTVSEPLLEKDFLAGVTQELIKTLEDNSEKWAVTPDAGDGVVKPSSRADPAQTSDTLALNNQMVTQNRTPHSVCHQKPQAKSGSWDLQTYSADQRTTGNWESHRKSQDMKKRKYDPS
It is filed as functional, biochemical.

Assay [16] has as its target T5, ATP-dependent translocase ABCB1 (Homo sapiens, UniProt P08183). Kind of assay: ABCG2 efflux pump inhibitor potency, dose response, Ig-MXP3 cells, JC-1, flow cytometry, set 2 (AID 504566).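 Note: flow cytometry median green fluorescence of retained JC-1 dye; potency of efflux pump inhibition measured as rising substrate retention.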 It is filed as functional. The following applies: read-out: EC50_MICROM_.
In assay [17] the target is T5, ATP-dependent translocase ABCB1. In words: ABCB1 efflux inhibitor potency, dose response, Jurkat-DNR cells, JC-1, flow cytometry, set 2 (AID 504569).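 Note: potency of pump inhibitors that raise cellular JC-1 green fluorescence up to the nicardipine level.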 It is filed as functional. The following applies: read-out: EC50_MICROM_.
The target of assay [18] is T2, High affinity choline transporter 1. In words: inhibitors of CHT choline uptake, dose response, cell-based, 3H-choline uptake, CHT LV-AA trafficking mutant, CRC (AID 602208). It is filed as functional.
Assay [19] concerns the target ADP-ribosylation factor GTPase-activating protein 1 (Rattus norvegicus, UniProt Q62848). In words: Fluorescence polarization-based biochemical high throughput dose response screening assay to identify inhibitors of ADP-ribosylation factor GTPase activating protein 1 (ARFGAP1). It is filed as functional.
In assay [20] the target is T6, Apoptotic protease-activating factor 1 (Homo sapiens, UniProt O14727).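 Note: caspase-3 cleavage of fluorogenic Rh110 DEVD substrate downstream of apoptosome activation.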
T6 sequence (O14727 whole entry): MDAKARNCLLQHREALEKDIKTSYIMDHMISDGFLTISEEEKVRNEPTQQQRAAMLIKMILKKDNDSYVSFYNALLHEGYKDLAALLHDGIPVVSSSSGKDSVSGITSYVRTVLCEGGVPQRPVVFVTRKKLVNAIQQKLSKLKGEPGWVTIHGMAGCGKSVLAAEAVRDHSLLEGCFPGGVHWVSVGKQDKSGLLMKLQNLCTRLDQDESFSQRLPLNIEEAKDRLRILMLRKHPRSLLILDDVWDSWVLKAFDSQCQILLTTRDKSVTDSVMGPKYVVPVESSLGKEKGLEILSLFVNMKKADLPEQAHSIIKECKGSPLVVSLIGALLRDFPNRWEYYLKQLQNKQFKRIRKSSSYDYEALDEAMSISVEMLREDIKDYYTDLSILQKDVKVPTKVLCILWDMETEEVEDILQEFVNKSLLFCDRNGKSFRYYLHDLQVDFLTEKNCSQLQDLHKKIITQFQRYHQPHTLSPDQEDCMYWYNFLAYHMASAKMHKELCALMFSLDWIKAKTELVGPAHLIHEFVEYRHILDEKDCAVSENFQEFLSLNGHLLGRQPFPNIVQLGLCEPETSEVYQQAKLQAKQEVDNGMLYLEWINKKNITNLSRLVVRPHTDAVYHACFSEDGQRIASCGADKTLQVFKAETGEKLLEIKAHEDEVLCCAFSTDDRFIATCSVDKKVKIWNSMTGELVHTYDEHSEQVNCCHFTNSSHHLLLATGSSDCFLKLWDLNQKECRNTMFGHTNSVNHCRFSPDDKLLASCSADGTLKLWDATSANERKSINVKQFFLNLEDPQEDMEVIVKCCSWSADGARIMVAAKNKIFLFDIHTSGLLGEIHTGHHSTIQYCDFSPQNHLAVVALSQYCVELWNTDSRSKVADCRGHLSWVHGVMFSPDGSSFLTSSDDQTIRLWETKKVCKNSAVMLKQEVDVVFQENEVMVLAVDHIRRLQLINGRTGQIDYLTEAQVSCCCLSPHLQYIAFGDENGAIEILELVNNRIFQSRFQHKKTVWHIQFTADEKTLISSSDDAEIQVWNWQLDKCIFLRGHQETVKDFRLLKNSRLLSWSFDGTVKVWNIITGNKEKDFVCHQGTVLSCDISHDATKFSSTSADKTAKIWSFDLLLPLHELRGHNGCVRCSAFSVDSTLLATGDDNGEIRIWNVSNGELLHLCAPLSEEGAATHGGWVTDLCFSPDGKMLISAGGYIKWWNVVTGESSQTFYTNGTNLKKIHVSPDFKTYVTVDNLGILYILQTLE
In words: SAR analysis of small molecule Activators of Apaf-1 in a Fluorescent assay. It is filed as functional. To be noted: read-out: EC50_Mean.
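Throughout, for IC50 Mean: Dose-response confirmation assay measuring inhibition of LMPTP enzyme activity by fluorescence intensity read-out.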

T5 sequence (P08183 whole entry): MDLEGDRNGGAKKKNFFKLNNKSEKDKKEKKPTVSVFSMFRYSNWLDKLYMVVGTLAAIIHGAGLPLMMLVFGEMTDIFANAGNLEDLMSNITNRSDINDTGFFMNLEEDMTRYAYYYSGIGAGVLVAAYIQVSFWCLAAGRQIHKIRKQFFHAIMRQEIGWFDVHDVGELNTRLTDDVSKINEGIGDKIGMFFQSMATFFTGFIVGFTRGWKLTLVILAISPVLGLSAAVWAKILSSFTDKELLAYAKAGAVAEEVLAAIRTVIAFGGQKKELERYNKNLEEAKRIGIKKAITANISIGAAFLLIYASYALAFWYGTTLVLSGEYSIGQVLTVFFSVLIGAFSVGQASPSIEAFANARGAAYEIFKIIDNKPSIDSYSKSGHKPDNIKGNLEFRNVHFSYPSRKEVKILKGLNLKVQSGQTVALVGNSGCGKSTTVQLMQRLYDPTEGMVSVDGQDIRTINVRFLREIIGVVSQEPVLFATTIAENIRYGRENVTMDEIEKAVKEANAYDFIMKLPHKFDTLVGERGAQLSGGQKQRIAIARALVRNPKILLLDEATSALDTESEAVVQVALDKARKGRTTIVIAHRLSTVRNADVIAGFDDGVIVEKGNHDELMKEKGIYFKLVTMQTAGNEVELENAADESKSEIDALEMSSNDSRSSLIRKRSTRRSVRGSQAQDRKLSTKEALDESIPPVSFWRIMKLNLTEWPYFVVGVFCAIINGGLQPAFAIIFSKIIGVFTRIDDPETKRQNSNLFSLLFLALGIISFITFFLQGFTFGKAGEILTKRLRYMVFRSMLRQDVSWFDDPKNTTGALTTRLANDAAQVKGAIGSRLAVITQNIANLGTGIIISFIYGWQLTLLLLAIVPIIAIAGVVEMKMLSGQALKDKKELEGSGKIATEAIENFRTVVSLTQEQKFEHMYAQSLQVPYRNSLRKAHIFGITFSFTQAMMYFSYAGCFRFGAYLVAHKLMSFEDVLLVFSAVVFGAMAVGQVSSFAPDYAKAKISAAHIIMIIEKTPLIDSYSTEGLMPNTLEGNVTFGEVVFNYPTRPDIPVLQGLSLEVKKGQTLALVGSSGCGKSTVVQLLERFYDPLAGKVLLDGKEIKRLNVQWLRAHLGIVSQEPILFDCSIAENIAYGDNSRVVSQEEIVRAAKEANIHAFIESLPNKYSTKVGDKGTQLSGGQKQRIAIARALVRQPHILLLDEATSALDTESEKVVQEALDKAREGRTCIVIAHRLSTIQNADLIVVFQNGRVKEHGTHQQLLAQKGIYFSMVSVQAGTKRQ
Chain of ADP-ribosylation factor GTPase-activating protein 1 (Q62848 whole entry): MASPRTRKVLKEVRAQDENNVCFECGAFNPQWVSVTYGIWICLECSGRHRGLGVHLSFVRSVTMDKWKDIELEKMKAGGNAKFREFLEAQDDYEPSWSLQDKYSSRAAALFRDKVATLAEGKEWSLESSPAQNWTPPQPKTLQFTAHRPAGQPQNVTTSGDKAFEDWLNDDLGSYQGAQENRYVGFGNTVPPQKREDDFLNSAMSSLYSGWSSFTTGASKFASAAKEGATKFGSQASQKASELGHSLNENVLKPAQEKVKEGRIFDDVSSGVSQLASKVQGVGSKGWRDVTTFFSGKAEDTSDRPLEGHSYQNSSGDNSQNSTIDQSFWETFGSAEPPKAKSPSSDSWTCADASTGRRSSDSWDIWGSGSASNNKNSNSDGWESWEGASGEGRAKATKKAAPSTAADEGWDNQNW

As for `C/C(=N\NS(=O)(=O)c1ccc(Cl)c([N+](=O)[O-])c1)c1ccc(C)o1`, in [1], the IC50 is 80 µM (inactive).

Take `O=c1oc2ccccc2c(Cl)c1CN1CCCCC1`: the AC50 (usually the concentration giving half of the maximal activity seen) is > 70 µM (inactive) in assay [2], 7.15 µM (active) in assay [4] and 4.99 µM (active) in assay [6]. Also, the IC50 is 1.22 µM (active) in the assay with CHO, 6.02 µM (active) on Beta Lactamase, 6.69 µM (active) in [3] and 10 µM (active) in assay [5].

Regarding `CCCc1cc(=O)oc2c(C)c(OCC(=O)NCCCn3ccnc3)ccc12`, the values for the IC50 (on Steroidogenic factor 1; in assay [7]; in assay [8]) were 10.8 µM (inactive), 35.9 µM (inactive) and 35.9 µM (inactive), respectively.

With `COc1ccc2nc(C)cc(Nc3ccc(N4CCN(C)CC4)cc3)c2c1`, the AC50 was 62 µM (active) in assay [9], 52 µM (inactive) in [13], 2.45 µM (active) in [14] and 1.27 µM (active) in assay [15]. The IC50 in [10] is 11.4 µM (active). Also, the EC50 in assay [11] was > 10.1 µM (inactive); in [12] it was > 3.38 µM (active).

Consider `COc1cccc(C(=O)N2CCN(c3cc(-c4ccccc4)nc4cc(-c5cccc(Cl)c5)nn34)CC2)c1`, for which the EC50 in [16] is 2.6 µM (active); in assay [17], 2.22 µM (active).

On to `O=C(Nc1ccc(S(=O)(=O)Nc2cnc3ccccc3n2)cc1)c1ccc(Cl)cc1Cl`, for which the IC50 in assay [18] was 2.82 µM (active); in assay [3], 3.25 µM (active); in assay [5], 9.55 µM (active).

Consider `CCCOc1ccc(/C=N/NC(=O)c2ccc(Cn3cc([N+](=O)[O-])cn3)o2)cc1`, for which the IC50 in [19] was 49 µM (inactive).

Regarding `CCC(=O)N1CCc2cc(Br)c(S(=O)(=O)CCC(=O)Nc3cc(Cl)ccc3OC)cc21`, the EC50 in [20] was > 100 µM (inactive).
